Patent US9884818B2, “Sulphamoylpyrrolamide derivatives and the use thereof as medicaments for the treatment of hepatitis B” (Janssen Sciences Ireland UC, priority 2013, dated 2018)

Key:
HBV [1] = test: Anti-HBV activity, HepG2.117 inducibly HBV producing cell line (Tet-off), intracellular HBV DNA by realtime PCR; type: cell-based; conditions: HepG2.117 cells, 3 days of treatment, intracellular HBV DNA; read-out: HepG2 117 EC50
HBV [2] = test: Anti-HBV activity, HepG2.2.15 stable transfected cell line, HBV DNA from secreted virions by realtime PCR; type: cell-based; conditions: HepG2.2.15 cells, 6 days of treatment, HBV DNA from secreted virions; read-out: HepG2 2.15 EC50
HepG2 cells = test: Cytotoxicity in HepG2 cells, Resazurin viability assay; conditions: read-out: HepG2 4 days CC50; HepG2 cells, incubated for 4 days, Resazurin assay

Row | Structure (SMILES) | EC50 (HBV [1]) | EC50 (HBV [2]) | CC50 (HepG2 cells)
1 | Cn1cc(S(=O)(=O)NC2CCCC2(F)F)cc1C(=O)Nc1ccc(F)c(Cl)c1F (single isomer, unassigned) [Compound 236b, N-(3-Chloro-2,4-difluorophenyl)-4-{[2,2-difluorocyclopentyl]sulfamoyl}-1-methyl-1H-pyrrole-2-carboxamide] | 0.05 µM | 0.06 µM | > 25 µM
2 | Cn1cc(S(=O)(=O)NC2CCC(F)(F)C2)cc1C(=O)Nc1cc(F)c(F)c(Cl)c1 (single isomer, unassigned) [Compound 166b, N-(3-Chloro-4,5-difluorophenyl)-4-[(3,3-difluorocyclopentyl)sulfamoyl]-1-methyl-1H-pyrrole-2-carboxamide] | 0.17 µM | 0.31 µM | 21.3 µM
